Data as given in ChEMBL document CHEMBL1201862, “PubChem BioAssay data set” (2004).
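In this assay, cells in 96-well plates receive the compound at five concentrations for 48 hours. Endpoints are linearly interpolated between the surrounding concentrations. GI50 = concentration required for 50% inhibition of growth.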 Calls of active or inactive are those of the source. Rule as the data show it: active = GI50 up to about 1.1 µM and inactive = higher.

How the values were obtained:
Test in all cases: inhibition of tumour cell growth, NCI panel, 48 h
786-0 = test system: 786-0
ACHN = test system: ACHN
BT-549 = test system: BT-549
DLD-1 = test system: DLD-1
DU-145 = test system: DU-145
HCC 2998 = test system: HCC 2998
HOP-18 = test system: HOP-18
KM-20L2 = test system: KM-20L2
LXFL 529 = test system: LXFL 529
M14 = test system: M14
MCF7 = test system: MCF7
MDA-MB-231 = test system: MDA-MB-231
NCI-H522 = test system: NCI-H522
NCI/ADR-RES = test system: NCI/ADR-RES
PC-3 = test system: PC-3
SR = test system: SR
UACC-62 = test system: UACC-62
UO-31 = test system: UO-31
OVCAR-8 = test system: OVCAR-8
MDA-N = test system: MDA-N

Measured: GI50

CCC1(OC(=O)CN)C(=O)OCc2c1cc1n(c2=O)Cc2cc3ccccc3nc2-1 (configuration not stated)
active: 786-0 0.01 µM | ACHN 0.01 µM | BT-549 0.0593 µM | DLD-1 0.25 µM | DU-145 0.01 µM | HCC 2998 0.0664 µM | HOP-18 0.0975 µM | KM-20L2 0.124 µM | LXFL 529 0.546 µM | M14 0.01 µM | MCF7 0.01 µM | MDA-MB-231 0.38 µM | NCI-H522 0.0188 µM | NCI/ADR-RES 0.0118 µM | PC-3 0.0661 µM | SR 0.01 µM | UACC-62 0.01 µM | UO-31 0.0114 µM

O=C1CN2C(Cl)(Cl)C2(c2ccccc2)c2cc(Cl)ccc2N1CC1CC1 (configuration not stated)
inactive: ACHN 23.8 µM | DLD-1 16.9 µM | HCC 2998 18.7 µM | HOP-18 23.8 µM | KM-20L2 23.4 µM | LXFL 529 42.4 µM | M14 20.1 µM | NCI-H522 17.2 µM | OVCAR-8 14.6 µM | SR 29.2 µM | UO-31 26 µM

COc1ccc(C2N(NC(=O)c3ccncc3)C(=O)CS2(=O)=O)cc1F (configuration not stated)
inactive: ACHN > 100 µM | DLD-1 > 100 µM | HCC 2998 > 100 µM | HOP-18 > 100 µM | LXFL 529 > 100 µM | M14 > 100 µM | NCI-H522 92.3 µM | SR > 100 µM

C=CCNC(=O)N(CCC)CCCCC(NC(C)=O)C(=O)NCc1ccccc1 (configuration not stated)
inactive: 786-0 > 100 µM | ACHN > 100 µM | HCC 2998 > 100 µM | HOP-18 72.1 µM | KM-20L2 > 100 µM | LXFL 529 > 100 µM | M14 > 100 µM | NCI-H522 > 100 µM | OVCAR-8 > 100 µM | UACC-62 > 100 µM | UO-31 > 100 µM

CC(C)(C)C(=O)OCC1C(=O)OCC1C(=O)N1Cc2cc3ccccc3nc2C1 (configuration not stated)
active: NCI-H522 0.569 µM | SR 0.757 µM
inactive: 786-0 2.5 µM | ACHN 2.36 µM | BT-549 3.14 µM | DLD-1 1.55 µM | DU-145 16.4 µM | HCC 2998 15.5 µM | HOP-18 2.61 µM | KM-20L2 6.07 µM | LXFL 529 1.47 µM | M14 2.8 µM | MCF7 3.47 µM | MDA-MB-231 4.62 µM | MDA-N 3.83 µM | NCI/ADR-RES 4.92 µM | OVCAR-8 3.99 µM | PC-3 10.9 µM | UACC-62 4.51 µM | UO-31 2.47 µM

Cc1ccc(CCC(=O)C(=O)O)s1
inactive: ACHN > 100 µM | HCC 2998 > 100 µM | HOP-18 > 100 µM | KM-20L2 > 100 µM | LXFL 529 > 100 µM | M14 > 100 µM | NCI-H522 > 100 µM | OVCAR-8 > 100 µM | SR > 100 µM | UACC-62 19.4 µM | UO-31 > 100 µM

NC1CCCCC1
active: HOP-18 < 0.0562 µM
inactive: DLD-1 200 µM | HCC 2998 310 µM | KM-20L2 192 µM | MCF7 199 µM | NCI-H522 344 µM | NCI/ADR-RES > 562 µM | OVCAR-8 397 µM | UACC-62 255 µM

CC(=O)[C@H]1CCC2[C@@H]3CC=C4C(O)C(OS(=O)(=O)O)CC[C@]4(C)C3CC[C@@]21C (some centres not stated)
inactive: DLD-1 > 100 µM | HCC 2998 > 100 µM | HOP-18 > 100 µM | KM-20L2 > 100 µM | MCF7 > 100 µM | NCI-H522 > 100 µM | NCI/ADR-RES > 100 µM | OVCAR-8 > 100 µM | UACC-62 > 100 µM | UO-31 > 100 µM

O=C1CCC(c2ccccc2)=NN1c1nsc2ccccc12
inactive: ACHN > 100 µM | HCC 2998 60.8 µM | HOP-18 19.6 µM | KM-20L2 > 100 µM | LXFL 529 > 100 µM | M14 > 100 µM | OVCAR-8 > 100 µM | SR 58.9 µM | UACC-62 > 100 µM | UO-31 > 100 µM

COc1cc2ccc(CC(N)=O)cc2cc1OC
inactive: 786-0 > 100 µM | HOP-18 > 100 µM | KM-20L2 > 100 µM | LXFL 529 > 100 µM | M14 > 100 µM | NCI-H522 > 100 µM | OVCAR-8 > 100 µM | UACC-62 > 100 µM | UO-31 > 100 µM

COc1ccc(/C=N/n2c(C)nc3c(sc(=S)n3-c3ccccc3)c2=O)cc1
inactive: ACHN > 100 µM | DLD-1 > 100 µM | HCC 2998 > 100 µM | HOP-18 > 100 µM | LXFL 529 49 µM | NCI-H522 21.4 µM | OVCAR-8 > 100 µM | SR 44 µM | UACC-62 60.5 µM | UO-31 > 100 µM

CC1[C@@H]2CC=C3C4CCC5Cc6nc7c(nc6C[C@@]5(C)C4CC(=O)[C@]32CO[C@@]1(O)C(O)CC(C)(C)O)CC1CCC2C3=C[C@H]4O[C@@]5(O[C@@](C)(CO)C[C@@H]5O)C(C)[C@@]4(O)[C@]3(C)[C@@H](O)CC2[C@]1(C)C7 (some centres not stated)
active: DLD-1 0.111 µM | HCC 2998 0.0243 µM | HOP-18 0.269 µM | KM-20L2 0.0069 µM | MCF7 0.0109 µM | NCI-H522 0.0455 µM | NCI/ADR-RES 0.612 µM | OVCAR-8 0.127 µM | UACC-62 0.00381 µM | UO-31 0.0259 µM

NC(Cc1c[nH]c2ccccc12)C(=O)O (stereo not drawn) [DL-TRYPTOPHAN]
inactive: DLD-1 > 300 µM | HCC 2998 > 300 µM | HOP-18 54.1 µM | KM-20L2 > 300 µM | MCF7 > 300 µM | NCI-H522 > 300 µM | NCI/ADR-RES > 300 µM | OVCAR-8 231 µM | UACC-62 > 300 µM | UO-31 > 300 µM
